Data: paper PMC9533879 (European Journal of Medicinal Chemistry, 2021)

How the values were obtained:
[1] = test system: Vaccinia virus (strain Copenhagen); conditions: for IC50: read-out: IC50 Vaccinia

3,5-Dimethyl-N^1-(4-(trifluoromethyl)benzoyl)adamantane-1-carbohydrazide [Compound 17]
CC50 (Vero cell culture): > 254 µM | SI (CC50/IC50) Vaccinia [1]: 30.9/>8.2 | IC50 [1]: 30.9 µM

3-Ethyl-N^1-(4-(trifluoromethyl)benzoyl)adamantane-1-carbohydrazide [Compound 18]
CC50 (Vero cell culture): 47 µM | SI (CC50/IC50) Vaccinia [1]: 12.53/3.75 | IC50 [1]: 12.5 µM

O=C(NC12CC3CC(CC(C3)C1)C2)c1ccc(C(F)(F)F)cc1 [Compound 5, N-(Adamantan-1-yl)-4-(trifluoromethyl)benzamide]
times less active than the reference compound tecovirimat [1]: 50

CCC12CC3CC(C1)CC(NC(=O)c1ccc(C(F)(F)F)cc1)(C3)C2 [Compound 6, N-(3-Ethylаdamantan-1-yl)-4-(trifluoromethyl)benzamide]
SI (CC50/IC50) Vaccinia [1]: 4.1/>68

CN(C(=O)c1ccc(C(F)(F)F)cc1)C12CC3CC(CC(C3)C1)C2 [Compound 7, N-(Adamantan-1-yl)-N-methyl-4-(trifluoromethyl)benzamide]
SI (CC50/IC50) Vaccinia [1]: 4.85/>61

O=C(NCC12CC3CC(CC(C3)C1)C2)c1ccc(Br)cc1 [Compound 9, N-((Adamantan-1-yl)methyl)-4-bromobenzamide]
SI (CC50/IC50) Vaccinia [1]: 8.3/28

O=C(NC1C2CC3CC(C2)CC1C3)c1ccc(Br)cc1 (centres unmarked) [Compound 11, N-(Adamantan-2-yl)-4-bromobenzamide]
SI (CC50/IC50) Vaccinia [1]: 3.06/>98

O=C(NNC(=O)C12CC3CC(CC(C3)C1)C2)c1ccc(C(F)(F)F)cc1 [Compound 16, N^1-(4-(Trifluoromethyl)benzoyl)adamantane-1-carbohydrazide]
CC50 (Vero cell culture): > 273 µM | SI (CC50/IC50) Vaccinia [1]: 1.07/>255

O=C(NNC(=O)c1ccc(C(F)(F)F)cc1)NC12CC3CC(CC(C3)C1)C2 [Compound 20, N^1-(Adamantan-1-yl)-2-(4-(trifluoromethyl)benzoyl)hydrazine-1-carboxamide]
SI (CC50/IC50) Vaccinia [1]: 36.26/2.6

C/C(=N\NC(=O)c1ccc(C(F)(F)F)cc1)C12CC3CC(CC(C3)C1)C2 [Compound 31, N^1-(1-(Adamantan-1-yl)ethylidene)-4-(trifluoromethyl)benzohydrazide]
SI (CC50/IC50) Vaccinia [1]: 10.55/>26

CC12CC3CC(C1)CC(NC(=O)c1ccc(C(F)(F)F)cc1)(C3)C2 [Compound 37]
SI (CC50/IC50) Vaccinia [1]: 8.98/>33

(rac)-N^1-(1-(Adamantan-1-yl)ethyl)-4-(trifluoromethyl)benzohydrazide [Compound 32]
CC50 (Vero cell culture): 14 µM | SI (CC50/IC50) Vaccinia [1]: 0.515/27 | IC50 [1]: 0.515 µM

N^1-(3-Ethyladamantan-1-yl)-4-(trifluoromethyl)benzohydrazide [Compound 36]
CC50 (Vero cell culture): 2.5 µM | SI (CC50/IC50) Vaccinia [1]: 1.66/1.5 | IC50 [1]: 1.66 µM

N^1-(5-Chloroadamantan-2-yl)-4-(trifluoromethyl)benzohydrazide [Compound 28]
CC50 (Vero cell culture): ~215 µM | SI (CC50/IC50) Vaccinia [1]: 3.52/61 | IC50 [1]: 3.52 µM

N^1-(Adamantan-1-yl)-4-(trifluoromethyl)benzohydrazide [Compound 35]
CC50 (Vero cell culture): 2.8 µM

N^1-(Adamantan-2-yl)-4-(trifluoromethyl)benzohydrazide [Compound 27]
CC50 (Vero cell culture): > 296 µM | SI (CC50/IC50) Vaccinia [1]: 2.8/>103 | IC50 [1]: 2.8 µM
